This is an account of results in patent publication US5422342A, “2,3-disubstituted isoxazolidines, agents containing them and their use” (Hoechst Aktiengesellschaft, priority 1986, dated 1995).

Values joined by “and” are separate entries in the source; they are usually repeats but may differ in a detail not shown here. Equal entries are not always repeated.

The test system of assay [1] is calvarial culture. Nature of the assay: inhibitory action in calvarial culture (hydroxyproline/proline quotient). It is filed as cell-based. The following applies: concentration giving 50% decrease in the hydroxyproline/proline quotient on feeding with 14C-proline. An excerpt: The inhibitory action can also be determined in cell or tissue culture. It is possible to use for this purpose fibroblasts or other collagen-producing cells, or calvariae or other collagen-producing organs. Table 2 is a compilation of the inhibitory action of some substances according to the invention in calvarial culture. The concentration which results in a 50% decrease in the hydroxyproline/proline quotient on feeding with ^14 C-proline is stated.

Assay [2] has as its target prolyl hydroxylase (Homo sapiens, UniProt P13674). Nature of the assay: prolyl hydroxylase enzyme assay with preincubation (suicide inhibition). The format is biochemical. Particulars: concentration which inactivates 50% of the enzyme after one hour; preincubation with iron(II) ions, α-ketoglutarate and ascorbate. On the procedure:
The inhibitory action can be determined in an enzyme assay analogous to the method of B. Peterkofsky and R. DiBlasio Anal. Biochem. 66, 279-286 (1975). This entails underhydroxylated collagen being enzymatically hydroxylated with prolyl hydroxylase in the presence of iron(II) ions, α-ketoglutarate and ascorbate.
The suicidal nature of the inhibition is established by preincubation of the enzyme in the presence of iron(II) ions, α-ketoglutarate and ascorbate with the inhibitors for various times, and then determination of the remaining activity of the enzyme in the presence of a peptide substrate. It is possible to use for determination of the activity both the method of Peterkofsky and DiBlasio described above and other methods such as described by K. I. Kivirikko and R. Myllyla, Meth. Enzym. 82, 245-304 (1982). The concentration which inactivates 50% of the enzyme after one hour is stated.

Assay [3] deals with C1q biosynthesis by macrophages. The following applies: W. Muller et al., FEBS Lett. 90, 218f (1978); cited from earlier work.

prolyl hydroxylase, sequence (P13674 18-534): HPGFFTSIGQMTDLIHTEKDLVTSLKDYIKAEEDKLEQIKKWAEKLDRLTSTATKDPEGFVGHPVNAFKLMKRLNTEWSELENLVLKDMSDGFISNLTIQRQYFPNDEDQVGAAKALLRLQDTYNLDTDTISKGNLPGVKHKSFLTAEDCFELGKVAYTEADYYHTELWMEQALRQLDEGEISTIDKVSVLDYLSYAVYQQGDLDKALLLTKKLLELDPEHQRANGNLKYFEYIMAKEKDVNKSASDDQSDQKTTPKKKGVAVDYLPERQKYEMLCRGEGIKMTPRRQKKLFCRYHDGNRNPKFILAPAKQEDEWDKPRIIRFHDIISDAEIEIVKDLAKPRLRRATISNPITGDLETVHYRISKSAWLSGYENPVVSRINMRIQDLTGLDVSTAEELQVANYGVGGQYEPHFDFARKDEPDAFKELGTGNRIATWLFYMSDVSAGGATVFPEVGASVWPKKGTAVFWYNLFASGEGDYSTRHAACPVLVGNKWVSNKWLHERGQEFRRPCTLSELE
prolyl hydroxylase, sequence (P07237 18-508 partner): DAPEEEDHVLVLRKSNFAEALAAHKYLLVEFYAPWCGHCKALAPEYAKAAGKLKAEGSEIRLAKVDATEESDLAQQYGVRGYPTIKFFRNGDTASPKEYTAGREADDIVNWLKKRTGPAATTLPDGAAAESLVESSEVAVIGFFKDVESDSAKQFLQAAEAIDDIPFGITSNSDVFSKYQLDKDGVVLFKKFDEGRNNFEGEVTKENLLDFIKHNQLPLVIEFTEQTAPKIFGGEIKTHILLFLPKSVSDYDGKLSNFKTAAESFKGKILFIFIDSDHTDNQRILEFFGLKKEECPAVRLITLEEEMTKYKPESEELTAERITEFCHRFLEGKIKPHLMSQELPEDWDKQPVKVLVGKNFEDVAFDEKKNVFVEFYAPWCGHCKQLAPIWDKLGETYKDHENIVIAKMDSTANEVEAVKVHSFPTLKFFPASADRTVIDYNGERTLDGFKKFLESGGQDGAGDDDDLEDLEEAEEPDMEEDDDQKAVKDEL

The term IC50 denotes the concentration that gives 50% inhibition. A lower IC50 goes with greater potency. On to `O=C(CNC(=O)C1CCON1C(=O)Cc1ccccc1)OCc1ccc([N+](=O)[O-])cc1` (centres unmarked) [4-Nitrobenzyl ester of N-phenylacetyl-Opr-Gly], for which the IC50 in assay [1] is 2.5 mM. The “ID50 [60 min; μmol/l]” value in assay [2] worked out at 540.0 µmol/L.

Turning to `CCN(CC)C(=O)CNC(=O)C1CCON1C(=O)C1CCCN1C(C)=O` (centres unmarked) [Ac--Pro--Opr--Gly--N(C2 H5)2], the “ID50 [60 min; μmol/l]” value in assay [2] was 16900.0 µmol/L.

As to `CC(=O)N1CCCC1C(=O)N1OCCC1C(=O)NCC(=O)NCc1ccccc1` (centres unmarked) [Ac--Pro--Opr--Gly--NH--CH2 --C6 H5], the “ID50 [60 min; μmol/l]” value in assay [2] was determined as 6000.0 µmol/L.

Regarding `CC(=O)N1CCCC1C(=O)N1OCCC1C(=O)NCC(=O)NCCc1ccccc1` (centres unmarked) [Ac--Pro--Opr--Gly--NH--CH2 --CH2 --C6 H5], the “ID50 [60 min; μmol/l]” value in assay [2] was 4900.0 µmol/L.

Consider `CC(=O)N1CCCC1C(=O)N1OCCC1C(=O)NCC(=O)OCc1ccccc1` (centres unmarked) [Ac--Pro--Opr--Gly--OBzl], for which, in assay [2], the “ID50 [60 min; μmol/l]” value was 60.0 µmol/L.

`CC(=O)N1CCCC1C(=O)N1OCCC1C(=O)NCC(=O)OC(C)(C)C` (centres unmarked) [Ac--Pro--Opr--Gly--OtBu]: the half-maximal inhibitory concentration (IC50) in assay [1] was determined as 7.5 mM. The “ID50 [60 min; μmol/l]” value in assay [2] is 8000.0 µmol/L.

As to `O=C(CNC(=O)C1CCON1C(=O)CCc1ccccc1)OCc1ccccc1` (centres unmarked) [C6 H5 --CH2 --CH2 --CO--Opr--Gly--OBzl, N-3-Phenylpropionyl-Opr--Gly--OBzl], in assay [2], the “ID50 [60 min; μmol/l]” value was 2000.0 µmol/L.

Compound `O=C(CNC(=O)C1CCON1C(=O)Cc1ccccc1)OCc1ccccc1` (centres unmarked) [C6 H5 --CH2 --CO--Opr--Gly--OBzl] displayed a half-inhibitory concentration (IC50) in assay [1] of 2 mM. Besides, in assay [2], the “ID50 [60 min; μmol/l]” value came out at 1000.0 µmol/L.

For `O=C(CNC(=O)C1CCON1Cc1ccccc1)OCc1ccccc1` (stereo not drawn) [C6 H5 --CH2 --Opr--Gly--OBzl, C6 H5 --CH2 -Opr-Gly-OBzl], the “ID50 [60 min; μmol/l]” value in assay [2] was 610.0 µmol/L.

Regarding `CS(=O)(=O)CCOC(=O)NC(CCC(=O)OCc1ccccc1)C(=O)N1OCCC1C(=O)NCC(=O)OCc1ccccc1` (centres unmarked) [Msc--Glu(OBzl)--Opr--Gly--OBzl], the “ID50 [60 min; μmol/l]” value in assay [2] came to 30.0 µmol/L.

Consider `CC(NC(=O)OCc1ccccc1)C(=O)N1OCCC1C(=O)NCC(=O)OCc1ccccc1` (centres unmarked) [Z--(D)--Ala--Opr--Gly--OBzl, Z--(D)-- Ala--Opr--Gly--OBzl], for which the “ID50 [60 min; μmol/l]” value in assay [2] was over 10000.0 µmol/L.

With `C[C@H](NC(=O)OCc1ccccc1)C(=O)N1OCCC1C(=O)NCC(=O)OCc1ccccc1` (some centres unmarked) [Z--Ala--Opr--Gly--OBzl], the IC50 in assay [1] was 1.65 mM and 2.5 mM. In addition, the “ID50 [60 min; μmol/l]” value in assay [2] amounted to 3.0 µmol/L.

With `CC(NC(=O)OCc1ccccc1)C(=O)N1OCCC1C(=O)NCC(=O)O` (centres unmarked) [Z--Ala--Opr--Gly--OH], in assay [2], the “ID50 [60 min; μmol/l]” value was found to be 330.0 µmol/L.

For the compound `CC(NC(=O)OCc1ccccc1)C(=O)N1OCCC1C(=O)NCC(=O)OC(C)(C)C` (centres unmarked) [Z--Ala--Opr--Gly--OtBu, Z--Ala--Opr--Gly--OtBU], in assay [2], the “ID50 [60 min; μmol/l]” value is 40.0 µmol/L.

Take `O=C(O)CCC(NC(=O)OCc1ccccc1)C(=O)N1OCCC1C(=O)NCC(=O)OCc1ccccc1` (centres unmarked) [Z--Glu--Opr--Gly--OBzl]: the “ID50 [60 min; μmol/l]” value in assay [2] is 5000.0 µmol/L.

Consider `O=C(CNC(=O)C1CCON1C(=O)C(CCCCN1C(=O)c2ccccc2C1=O)NC(=O)OCc1ccccc1)OCc1ccccc1` (centres unmarked) [Z--Lys(Pht)--Opr--Gly--OBzl], for which the “ID50 [60 min; μmol/l]” value in assay [2] turned out to be 11.0 µmol/L.

Turning to `O=C(CNC(=O)C1CCON1C(=O)C(Cc1ccccc1)NC(=O)OCc1ccccc1)OCc1ccc(F)cc1` (centres unmarked) [Z--Phe--Opr--Gly--O--CH2 --C6 H4-4-F], the “ID50 [60 min; μmol/l]” value in assay [2] came out at 0.8 µmol/L.

For `O=C(CNC(=O)C1CCON1C(=O)C(Cc1ccccc1)NC(=O)OCc1ccccc1)OCCc1ccccc1` (centres unmarked) [Z--Phe--Opr--Gly--O--CH2 --CH2 --C6 H5], the “ID50 [60 min; μmol/l]” value in assay [2] was 0.9 µmol/L.

For `O=C(CNC(=O)C1CCON1C(=O)C(Cc1ccccc1)NC(=O)OCc1ccccc1)OCc1ccccc1` (stereo not drawn) [Z--Phe--Opr--Gly--OBzl, Z-Phe-Opr-Gly-OBzl], in assay [2], the “ID50 [60 min; μmol/l]” value was 0.8 µmol/L.

`N#Cc1ccc(C(=O)CNC(=O)C2CCON2C(=O)C(Cc2ccccc2)NC(=O)OCc2ccccc2)cc1` (centres unmarked) [Z--Phe--Opr--NH--CH2 --CO--C6 H4-4-CN, ZPheOprNHCH2 COC6 H4-4-CN]: the “ID50 [60 min; μmol/l]” value in assay [2] was determined as 1.1 µmol/L.

`O=C(NC(Cc1ccccc1)C(=O)N1OCCC1C(=O)NCC(=O)c1ccccc1)OCc1ccccc1` (centres unmarked) [Z--Phe--Opr--NH--CH2 --CO--C6 H5, ZPheOprNHCH2 COC6 H5]: in assay [2], the “ID50 [60 min; μmol/l]” value is 2.4 µmol/L.

`CN(CC(=O)OCc1ccccc1)C(=O)C1CCON1C(=O)C(Cc1ccccc1)NC(=O)OCc1ccccc1` (centres unmarked) [Z--Phe--Opr--Sar-- OBzl, Z--Phe--Opr--Sar--OBzl]: the “ID50 [60 min; μmol/l]” value in assay [2] was over 10000.0 µmol/L.

Compound `CC(C)(C)OC(=O)CNC(=O)C1CCON1C(=O)C1CCCN1C(=O)OCc1ccccc1` (centres unmarked) [Z--Pro--Opr--Gly--OtBu] registered an IC50 in assay [1] of 0.55 mM.

`O=C(CNC(=O)C1CCON1C(=O)C1Cc2ccccc2CN1C(=O)OCc1ccccc1)OCc1ccccc1` (centres unmarked) [Z--Tic--Opr--Gly--OBzl]: in assay [2], the “ID50 [60 min; μmol/l]” value was determined as 1.5 µmol/L.

`O=C(CNC(=O)C1CCON1C(=O)C(Cc1ccc(O)cc1)NC(=O)OCc1ccccc1)OCc1ccccc1` (centres unmarked) [Z--Tyr--Opr--Gly--OBzl]: in assay [2], the “ID50 [60 min; μmol/l]” value is 2.4 µmol/L.

On to `CC(C)C(NC(=O)OCc1ccccc1)C(=O)N1OCCC1C(=O)NCC(=O)OCc1ccccc1` (centres unmarked) [Z--Val--Opr--Gly--OBzl], for which, in assay [1], the IC50 is 0.38 mM. In assay [2], the “ID50 [60 min; μmol/l]” value was found to be 40.0 µmol/L.

On to `O=C(CCc1ccccc1)CNC(=O)C1CCON1C(=O)C(Cc1ccccc1)NC(=O)OCc1ccccc1` (stereo not drawn) [Z-Phe-Opr-NH--CH2 --CO--CH2 --CH2 --C6 H5], for which the “ID50 [60 min; μmol/l]” value in assay [2] worked out at 3.4 µmol/L.

`c1ccc(-c2ccccn2)nc1` [α,α-dipyridyl]: the “effect on C1q biosynthesis by macrophages” value in assay [3] is listed as “inhibition of C1q biosynthesis by macrophages”.

In the case of “HPheOprNHCH2 COC6 H4 -4-Cl [H--Phe--Opr--NH--CH2 --CO--C6 H4-4-Cl]”, in assay [2], the “ID50 [60 min; μmol/l]” value was 15.5 µmol/L.

Turning to “Z-Phe(r)-Opr-Gly-OBzl [Z--Phe(r)--Opr--Gly--OBzl]”, the “ID50 [60 min; μmol/l]” value in assay [2] was 1.1 µmol/L.
